Measurements: US6562849B1, “Amine derivative compounds” (Sankyo Company, Limited, priority 1999, dated 2003)
Counter-ions that a name gives are not always drawn.

These compounds were tested on KK mice (age 4-5 months) with diabetes (assay: Blood sugar lowering effect in KK mice with diabetes). Conditions: Mus musculus, po, 72 h, powder diet containing 0.01% of the test compound for 3 days, plasma glucose vs control group, groups of 4 mice, read-out: Blood sugar decrease rate (%).
Assay type: in vivo
Excerpt: [Test Example] Blood Sugar Lowering Effect
Blood samples were collected from the caudal vein of KK mice (age 4-5 months) with diabetes followed by measurement of their blood sugar levels. Next, after assigning the mice to groups (of 4 mice each) so that the mean blood sugar levels of each group were the same, mouse laboratory powder diet (F-1, Funabashi Farms), prepared so as to contain 0.01% of the test compound, was given to the mice for 3 days. The groups of mice that were given test compound were designated as the drug dose groups. It should be noted that a group that was given laboratory diet not containing the test compound was designated as the control group. Blood samples were collected from the caudal vein of the mice 3 days later and the glucose concentration of the plasma obtained by centrifugal separation was measured with a glucose analyzer (Glucoloader, A & T Corp.). The mean decrease of blood sugar rate (%) was determined according to the following equation.
Blood sugar decrease rate (%)=(mean blood sugar value of control group−mean blood sugar value […] of drug dose group)×100/(blood sugar value of control group)

Q: Which inhibition in vivo at 0.01 % in diet does the source give for `Cn1c(COc2ccc(CC3SC(=O)NC3=O)cc2)nc2ccc(Oc3ccc4cccc(NC(=S)NCc5ccccc5)c4c3)cc21` (centres unmarked) [Example 44, 1-Benzyl-3-(7-[2-[4-(2,4-dioxothiazolidin-5-ylmethyl)phenoxymethyl]-1-methyl-1H-benzimidazol-6-yloxy]naphthalen-1-yl)thiourea] here?
A: The inhibition in vivo at 0.01 % in diet was 47.2%.

Q: Which inhibition in vivo at 0.01 % in diet does the source give for `Cn1c(COc2ccc(CC3SC(=O)NC3=O)cc2)nc2ccc(Oc3ccc(NC(=O)c4ccc5ccccc5c4)cc3)cc21` (centres unmarked) [Example 60, N-[4-[2-[4-(2,4-Dioxothiazolidin-5-ylmethyl)phenoxymethyl]-1-methyl-1H-benzimidazol-6-yloxy]phenyl]naphthalene-2-carboxamide] here?
A: Its inhibition in vivo at 0.01 % in diet is 49.8%.

Q: `CCNC(=O)Nc1ccc(Oc2ccc3nc(COc4ccc(CC5SC(=O)NC5=O)cc4)n(C)c3c2)cc1` (centres unmarked) [Example 12, 1-(4-[2-[4-(2,4-Dioxothiazolidin-5-ylmethyl)phenoxymethyl]-1-methyl-1H-benzimidazol-6-yloxy]phenyl)-3-ethylurea] was tested. Which inhibition in vivo at 0.01 % in diet did it give?
A: Its inhibition in vivo at 0.01 % in diet is 56.1%.

Q: Which inhibition in vivo at 0.01 % in diet does the source give for `Cn1c(COc2ccc(CC3SC(=O)NC3=O)cc2)nc2ccc(Oc3ccc(NC(=S)NCc4ccccc4)cc3)cc21` (centres unmarked) [Example 11, 1-Benzyl-3-(4-[2-[4-(2,4-dioxothiazolidin-5-ylmethyl)phenoxymethyl]-1-methyl-1H-benzimidazol-6-yloxy]phenyl)thiourea] here?
A: Its inhibition in vivo at 0.01 % in diet is 32.9%.

Q: How did the inhibition in vivo at 0.01 % in diet turn out when `Cn1c(COc2ccc(CC3SC(=O)NC3=O)cc2)nc2ccc(Oc3ccc(NS(C)(=O)=O)cc3)cc21` (centres unmarked) [Example 18, N-(4-[2-[4-(2,4-Dioxothiazolidin-5-ylmethyl)phenoxymethyl]-1-methyl-1H-benzimidazol-6-yloxy]phenyl)methanesulfonamide] was run?
A: Its inhibition in vivo at 0.01 % in diet is 61%.

Q: For `Cn1c(COc2ccc(CC3SC(=O)NC3=O)cc2)nc2ccc(Oc3ccc(CCNC(=O)NC45CC6CC(CC(C6)C4)C5)cc3)cc21` (centres unmarked) [Example 33, 1-(Adamant-1-yl)-3-[2-(4-[2-[4-(2,4-dioxothiazolidin-5-ylmethyl)phenoxymethyl]-1-methyl-1H-benzimidazol-6-yloxy]phenyl)ethyl]urea dihydrochloride], which inhibition in vivo at 0.01 % in diet is on record?
A: The inhibition in vivo at 0.01 % in diet was 30.4%.

Q: With `Cn1c(COc2ccc(CC3SC(=O)NC3=O)cc2)nc2ccc(Oc3ccc(NC(=O)c4ccc(F)cc4F)cc3)cc21` (centres unmarked) [Example 57, 2,4-Difluoro-N-[4-[2-[4-(2,4-dioxothiazolidin-5-ylmethyl)phenoxymethyl]-1-methyl-1H-benzimidazol-6-yloxy]phenyl]benzamide] as the compound, how does the inhibition in vivo at 0.01 % in diet read?
A: The inhibition in vivo at 0.01 % in diet was 57.3%.

Q: Which inhibition in vivo at 0.01 % in diet does the source give for `CCCCCCN(C(=O)Nc1ccc(F)cc1)c1ccc(Oc2ccc3nc(COc4ccc(CC5SC(=O)NC5=O)cc4)n(C)c3c2)cc1` (centres unmarked) [Example 16, 1-(4-[2-[4-(2,4-Dioxothiazolidin-5-ylmethyl)phenoxymethyl]-1-methyl-1H-benzimidazol-6-yloxy]phenyl)-1-n-hexyl-3-(4-fluorophenyl)urea] here?
A: Its inhibition in vivo at 0.01 % in diet is 42.9%.

Q: With `Cn1c(COc2ccc(CC3SC(=O)NC3=O)cc2)nc2ccc(Oc3ccc(CCNC(=O)Nc4ccc(C(F)(F)F)cc4)cc3)cc21` (centres unmarked) [Example 34, 1-[2-(4-[2-[4-(2,4-Dioxothiazolidin-5-ylmethyl)phenoxymethyl]-1-methyl-1H-benzimidazol-6-yloxy]phenyl)ethyl]-3-[4-(trifluoromethyl)phenyl]urea hydrochloride] as the compound, how does the inhibition in vivo at 0.01 % in diet read?
A: The inhibition in vivo at 0.01 % in diet was 32.8%.

Q: With `Cn1c(COc2ccc(CC3SC(=O)NC3=O)cc2)nc2ccc(Oc3ccc(NC(=O)c4cccnc4)cc3)cc21` (centres unmarked) [Example 56, N-[4-[2-[4-(2,4-Dioxothiazolidin-5-ylmethyl)phenoxymethyl]-1-methyl-1H-benzimidazol-6-yloxy]phenyl]nicotinamide] as the compound, how does the inhibition in vivo at 0.01 % in diet read?
A: Its inhibition in vivo at 0.01 % in diet is 63.6%.

Q: For `Cn1c(COc2ccc(CC3SC(=O)NC3=O)cc2)nc2ccc(Oc3ccc(NC(=O)c4cccc(Cl)c4)cc3)cc21` (centres unmarked) [Example 54, 3-Chloro-N-[4-[2-[4-(2,4-dioxothiazolidin-5-ylmethyl)phenoxymethyl]-1-methyl-1H-benzimidazol-6-yloxy]phenyl]benzamide], which inhibition in vivo at 0.01 % in diet is on record?
A: Its inhibition in vivo at 0.01 % in diet is 43.4%.

Q: For `CCCCCCN(C(C)=O)c1ccc(Oc2ccc3nc(COc4ccc(CC5SC(=O)NC5=O)cc4)n(C)c3c2)cc1` (centres unmarked) [Example 61, N-[4-[2-[4-(2,4-Dioxothiazolidin-5-ylmethyl)phenoxymethyl]-1-methyl-1H-benzimidazol-6-yloxy]phenyl]-N-n-hexylacetamide hydrochloride], which inhibition in vivo at 0.01 % in diet is on record?
A: The inhibition in vivo at 0.01 % in diet was 54.2%.

Q: For `Cc1cc(Oc2ccc3nc(COc4ccc(CC5SC(=O)NC5=O)cc4)n(C)c3c2)cc(C)c1NC(=S)Nc1ccc(Cl)cc1` (centres unmarked) [Example 2, 1-(4-Chlorophenyl)-3-(4-[2-[4-(2,4-dioxothiazolidin-5-ylmethyl)phenoxymethyl]-1-methyl-1H-benzimidazol-6-yloxy]-2,6-dimethylphenyl)thiourea], which inhibition in vivo at 0.01 % in diet is on record?
A: The inhibition in vivo at 0.01 % in diet was 48.9%.

Q: Which inhibition in vivo at 0.01 % in diet does the source give for `Cn1c(COc2ccc(CC3SC(=O)NC3=O)cc2)nc2ccc(Oc3ccc(NC(=O)NC45CC6CC(CC(C6)C4)C5)cc3)cc21` (centres unmarked) [Example 14, 1-(Adamant-1-yl)-3-(4-[2-[4-(2,4-dioxothiazolidin-5-ylmethyl)phenoxymethyl]-1-methyl-1H-benzimidazol-6-yloxy]phenyl)urea] here?
A: Its inhibition in vivo at 0.01 % in diet is 63.2%.

Q: `Cn1c(COc2ccc(CC3SC(=O)NC3=O)cc2)nc2ccc(Oc3ccc(CCNC(=O)c4cccnc4)cc3)cc21` (centres unmarked) [Example 63, N-[2-[4-[2-[4-(2,4-Dioxothiazolidin-5-ylmethyl)phenoxymethyl]-1-methyl-1H-benzimidazol-6-yloxy]phenyl]ethyl]nicotinamide dihydrochloride] was tested. Which inhibition in vivo at 0.01 % in diet did it give?
A: Its inhibition in vivo at 0.01 % in diet is 55.7%.

Q: With `Cn1c(COc2ccc(CC3SC(=O)NC3=O)cc2)nc2ccc(Oc3ccc(CCNC(=O)Cc4cccc(Cl)c4)cc3)cc21` (centres unmarked) [Example 64, 2-(3-Chlorophenyl)-N-[2-[4-[2-[4-(2,4-dioxothiazolidin-5-ylmethyl)phenoxymethyl]-1-methyl-1H-benzimidazol-6-yloxy]phenyl]ethyl]acetamide hydrochloride] as the compound, how does the inhibition in vivo at 0.01 % in diet read?
A: The inhibition in vivo at 0.01 % in diet was 43.5%.

Q: How did the inhibition in vivo at 0.01 % in diet turn out when `Cn1c(COc2ccc(CC3SC(=O)NC3=O)cc2)nc2ccc(Oc3ccc(NC(=O)c4ccccc4)cc3)cc21` (centres unmarked) [Example 53, N-[4-[2-[4-(2,4-Dioxothiazolidin-5-ylmethyl)phenoxymethyl]-1-methyl-1H-benzimidazol-6-yloxy]phenyl]benzamide] was run?
A: Its inhibition in vivo at 0.01 % in diet is 59.6%.

Q: Which inhibition in vivo at 0.01 % in diet does the source give for `CC(=O)Nc1ccc(Oc2ccc3nc(COc4ccc(CC5SC(=O)NC5=O)cc4)n(C)c3c2)cc1` (centres unmarked) [Example 52, N-[4-[2-[4-(2,4-Dioxothiazolidin-5-ylmethyl)phenoxymethyl]-1-methyl-1H-benzimidazol-6-yloxy]phenyl]acetamide] here?
A: Its inhibition in vivo at 0.01 % in diet is 58.5%.

Q: For `Cc1cc(Oc2ccc3nc(COc4ccc(CC5SC(=O)NC5=O)cc4)n(C)c3c2)cc(C)c1NC(=O)Nc1ccc([N+](=O)[O-])cc1` (centres unmarked) [Example 3, 1-(4-[2-[4-(2,4-Dioxothiazolidin-5-ylmethyl)phenoxymethyl]-1-methyl-1H-benzimidazol-6-yloxy]-2,6-dimethylphenyl)-3-(4-nitrophenyl)urea], which inhibition in vivo at 0.01 % in diet is on record?
A: Its inhibition in vivo at 0.01 % in diet is 49.9%.

Q: `Cn1c(COc2ccc(CC3SC(=O)NC3=O)cc2)nc2ccc(Oc3ccc(NC(=O)Nc4ccccc4)cc3)cc21` (centres unmarked) [Example 4, 1-(4-[2-[4-(2,4-Dioxothiazolidin-5-ylmethyl)phenoxymethyl]-1-methyl-1H-benzimidazol-6-yloxy]phenyl)-3-phenylurea] was tested. Which inhibition in vivo at 0.01 % in diet did it give?
A: The inhibition in vivo at 0.01 % in diet was 48.6%.

Q: `Cn1c(COc2ccc(CC3SC(=O)NC3=O)cc2)nc2ccc(Oc3ccc(NC(=O)c4ccncc4)cc3)cc21` (centres unmarked) [Example 55, N-[4-[2-[4-(2,4-Dioxothiazolidin-5-ylmethyl)phenoxymethyl]-1-methyl-1H-benzimidazol-6-yloxy]phenyl]isonicotinamide] was tested. Which inhibition in vivo at 0.01 % in diet did it give?
A: Its inhibition in vivo at 0.01 % in diet is 53.8%.

Q: For `Cn1c(COc2ccc(CC3SC(=O)NC3=O)cc2)nc2ccc(Oc3ccc(NC(=S)NC4CCCCC4)cc3)cc21` (centres unmarked) [Example 9, 1-(4-[2-[4-(2,4-Dioxothiazolidin-5-ylmethyl)phenoxymethyl]-1-methyl-1H-benzimidazol-6-yloxy]phenyl)-3-(cyclohexyl)thiourea], which inhibition in vivo at 0.01 % in diet is on record?
A: Its inhibition in vivo at 0.01 % in diet is 47.1%.

Q: How did the inhibition in vivo at 0.01 % in diet turn out when `Cn1c(COc2ccc(CC3SC(=O)NC3=O)cc2)nc2ccc(OCCc3ccc(NC(=O)Nc4ccc(C(F)(F)F)cc4)cc3)cc21` (centres unmarked) [Example 37, 1-[4-(2-[2-[4-(2,4-Dioxothiazolidin-5-ylmethyl)phenoxymethyl]-1-methyl-1H-benzimidazol-6-yloxy]ethyl)phenyl]-3-[4-(trifluoromethyl)phenyl]urea] was run?
A: The inhibition in vivo at 0.01 % in diet was 35.2%.

Q: For `Cn1c(COc2ccc(CC3SC(=O)NC3=O)cc2)nc2ccc(Oc3ccc(NC(=O)Nc4ccc(F)cc4F)cc3)cc21` (centres unmarked) [Example 5, 1-(2,4-Difluorophenyl)-3-(4-[2-[4-(2,4-dioxothiazolidin-5-ylmethyl)phenoxymethyl]-1-methyl-1H-benzimidazol-6-yloxy]phenyl)urea], which inhibition in vivo at 0.01 % in diet is on record?
A: Its inhibition in vivo at 0.01 % in diet is 36.2%.

Q: Which inhibition in vivo at 0.01 % in diet does the source give for `Cn1c(COc2ccc(CC3SC(=O)NC3=O)cc2)nc2ccc(Oc3ccc(CCNC(=O)Nc4ccc(F)cc4F)cc3)cc21` (centres unmarked) [Example 31, 1-(2,4-Difluorophenyl)-3-[2-(4-[2-[4-(2,4-dioxothiazolidin-5-ylmethyl)phenoxymethyl]-1-methyl-1H-benzimidazol-6-yloxy]phenyl)ethyl]urea] here?
A: The inhibition in vivo at 0.01 % in diet was 50.5%.

Q: For `CC(C)c1cccc(C(C)C)c1NC(=O)Nc1cccc2ccc(Oc3ccc4nc(COc5ccc(CC6SC(=O)NC6=O)cc5)n(C)c4c3)cc12` (centres unmarked) [Example 40, 1-(2,6-Diisopropylphenyl)-3-[7-[2-[4-(2,4-dioxothiazolidin-5-ylmethyl)phenoxymethyl]-1-methyl-1H-benzimidazol-6yloxy]naphthalen-1-yl)urea], which inhibition in vivo at 0.01 % in diet is on record?
A: The inhibition in vivo at 0.01 % in diet was 59.3%.
